What was measured:
Type in all cases: physicochemical
[1] = Flowability of amino acid derivative powders in confined state (annular shear cell, Evolution Powder Tester, pre-consolidation); settings: tests with confinement, densified with pre-consolidation forces
Description: (§1) The flowability of 15 samples of amino acid powders was tested. The flowability of each powder in unconfined state was assessed by powder flow analysis in a rotating drum (“revolution analyzer”), by testing mass flow through a funnel, and by determining the angle of repose. The latter two measurements were performed according to chapter 1174 of the U.S. Pharmacopeia. The flowability of the samples at a confided state was analyzed by measurements with an annular shear cell and by using the Evolution Powder Tester device by PS Prozesstechnik GmbH, Basel. In these tests, the samples were initially densified with different pre-consolidation forces.

[2] = Flowability of amino acid derivative powders in unconfined state (rotating drum, mass flow through a funnel, angle of repose); settings: powder, tests without confinement
Description: as §1

[3] = Concentration in saturated dimethyl formamide solution by analytical RP-UHPLC; settings: room temperature
Description: The concentration of the same amino acids in saturated solutions of dimethyl formamide at room temperature was determined by analytical reversed phase ultrahigh pressure liquid chromatography. The values ranged from below 200 mg/ml for Fmoc-Pro-OH over around 400 mg/ml for Fmoc-Ala-OH to above 600 mg/ml for Fmoc-Gly-OH.

flowability [1] | flowability [2] | concentration in saturated solution [3] | Structure (SMILES)
Medium values | poor flowability parameters | around 400 mg/ml | C[C@H](NC(=O)OCC1c2ccccc2-c2ccccc21)C(=O)O [Fmoc-Ala-OH]
– | good flowability | – | CSCC[C@H](NC(=O)OCC1c2ccccc2-c2ccccc21)C(=O)O [Fmoc-Met-OH]
good flowability | poor flowability parameters | below 200 mg/ml | O=C(O)[C@@H]1CCCN1C(=O)OCC1c2ccccc2-c2ccccc21 [Fmoc-Pro-OH]

The remaining lines, values behind:

Structure (SMILES) | flowability [1] | flowability [2] | concentration in saturated solution [3]
O=C(N[C@@H](CSC(c1ccccc1)(c1ccccc1)c1ccccc1)C(=O)O)OCC1c2ccccc2-c2ccccc21 [Fmoc-Cys(Trt)-OH] | good flowability | good flowability | –
O=C(O)CNC(=O)OCC1c2ccccc2-c2ccccc21 [Fmoc-Gly-OH] | poor flowability | good | above 600 mg/ml
CC(C)(C)OC(=O)NCCCC[C@H](NC(=O)OCC1c2ccccc2-c2ccccc21)C(=O)O [Fmoc-Lys(Boc)-OH] | poor flowability | – | –

Source: patent publication US20220387958A1, “APPARATUS AND METHOD FOR ITERATIVE POLYMER SYNTHESIS” (BACHEM AG, priority 2019, published 2022)
